Patent US8431557B2, “Treatment of menopause-associated symptoms” (Besins Healthcare Luxembourg SARL, priority 2006, dated 2013)

Assays:
menopausal women [1] = assay: Placebo-controlled study: frequency of moderate to severe hot flushes; assay type: in vivo, human (women); parameters: key to Frequency of Moderate to Severe Hot Flushes, Mean Change from Baseline / Frequency of Moderate to Severe Hot Flushes, Mean: number of moderate-to-severe hot flushes per day; conditions: for Frequency of Moderate to Severe Hot Flushes, Mean: Baseline, daily average
Description: (§1) This study was a multi-centred, double-blind, placebo-controlled, parallel group comparison. A total of 351 subjects were enrolled at 78 sites in the United States.
(§2) A two-week, medication free, Pre-Treatment Phase was used to determine subject vasomotor symptoms. Efficacy assessments included the number and intensity of hot flushes per day, and severity of vulvar and vaginal atrophy symptoms.
(§3) The three treatment groups comprised the following dosages: • A 0.375 mg dose (1.25 g of gel @ 0.03%) applied to one arm and 0.9 g of placebo gel applied on the other arm once daily for 12 weeks; • A 0.27 mg dose (0.9 g of gel @ 0.03%) applied to one arm and 1.25 g of placebo gel applied on the other arm once daily for 12 weeks; and • 0.9 g of placebo gel applied to one arm and 1.25 g of placebo gel applied on the other arm once daily for 12 weeks.
(§4) The Treatment Phase was 12 weeks. A pre-treatment period of 2 weeks was used to initially evaluate each subject's vasomotor symptoms.
(§5) All data were analyzed using the approach of Observed Cases (OC).
(§6) For all continuous primary and secondary efficacy parameters, descriptive statistics tables and 2-way ANCOVA with fixed factors treatment and centre, and baseline value as covariate were provided. The interaction of treatment and centre was investigated using 2-way ANCOVA with fixed factors treatment, centre, and treatment-by-centre interaction with baseline value as covariate. To control the Type-I error rate, a step-down procedure using contrasts was performed to compare each treatment group to the placebo group. First, the group with the 0.375 mg dose was compared against placebo at the α=0.05 level (2-sided). If the null hypothesis was rejected, the group with the 0.27 mg dose was compared to placebo at the α=0.05 level (2-sided). Graphs were used to characterize the dose response. If the assumptions of the model were not met, then van Elteren's test with centre as the stratification variable was used in the step-down procedure. For categorical data, Fisher's exact test was used to compare treatment groups.
(§7) The study assessed the following variables: • Mean change in frequency of moderate to severe vasomotor symptoms from baseline to Week 4; • Mean change in frequency of moderate to severe vasomotor symptoms from baseline to Week 12; • Mean change in severity of moderate to severe vasomotor symptoms from baseline to Week 4; • Mean change in severity of moderate to severe vasomotor symptoms from baseline to Week 12; • Mean change in frequency of moderate-to-severe hot flushes at each week; • Mean change in severity of moderate-to-severe hot flushes at each week; • Mean change from baseline to Week 12 in the moderate to severe symptom of vulvar and vaginal atrophy that has been identified by the subject as being the most bothersome to her (vaginal pain, dryness, irritation/itching, bleeding, dysuria);
The baseline value was defined as the daily average of moderate to severe hot flushes during the 2 Pre-Treatment Phase weeks. The “daily average” was calculated from “the mean across the reported days at each week or at Pre-Treatment Phase weeks. If only mild hot flushes were reported on any day, the moderate to severe hot flush value for the subject on that day was zero. If less than 10 days of data were available for the baseline period, the baseline daily average was considered missing.
On a daily basis, the subject recorded the number of hot flushes and rated the intensity of each based on a four-point scale as follows: • 0 (none) • 1 (mild) Sensation of heat without perspiration • 2 (moderate) Sensation of heat with perspiration, but the subject was able to continue with their activity • 3 (severe) Sensation of heat with sweating, sufficiently severe to result in discontinuation of activity Assessment of Vulvar and Vaginal Atrophy Symptom Severity

menopausal women [2] = assay: Placebo-controlled study: moderate to severe symptom of vulvar and vaginal atrophy; assay type: in vivo, human (women)
Description: as §1, §2, §3, §4, §5, §6, §7
The severity of symptoms of vulvar and vaginal atrophy (vaginal pain associated with sexual activity, dryness, irritation/itching, bleeding associated with sexual activity, or dysuria) that was identified by the subject as moderate to severe and most bothersome was assessed at Week 1, Week 12, or Early Termination using the following rating scale: […]

[3] = 0.27 mg dose (N = 115), Baseline
[4] = 0.27 mg dose (N = 115), Endpoint
[5] = 0.375 mg dose (N = 114), Baseline

In the case of `C[C@]12CC[C@@H]3c4ccc(O)cc4CC[C@H]3[C@@H]1CC[C@@H]2O` [estradiol, 17-beta estradiol], the “Week at which statistical significance vs placebo was achieved, frequency of moderate to severe hot flushes” value (menopausal women [1]; 0.27 mg dose) is reported as 4 Week, the “Frequency of Moderate to Severe Hot Flushes, Mean” value (menopausal women [1]; 0.27 mg dose) is reported as 11.73 and the “Frequency of Moderate to Severe Hot Flushes, Mean Change from Baseline” value (“Frequency … Mean Change from Baseline” for short) (menopausal women [1]; 0.27 mg dose, Week 1) is reported as −1.05. The “Frequency … Mean Change from Baseline” value (menopausal women [1]; 0.27 mg dose, Week 2) was −2.97, the “Frequency … Mean Change from Baseline” value (menopausal women [1]; 0.27 mg dose, Week 3) was −4.08 and the “Frequency … Mean Change from Baseline” value (menopausal women [1]; 0.27 mg dose, Week 4) was −4.63. The “Frequency … Mean Change from Baseline” value (menopausal women [1]; 0.27 mg dose, Week 5) was −5.20, the “Frequency … Mean Change from Baseline” value (menopausal women [1]; 0.27 mg dose, Week 6) was −5.62 and the “Frequency … Mean Change from Baseline” value (menopausal women [1]; 0.27 mg dose, Week 7) was −6.02. The “Frequency … Mean Change from Baseline” value (menopausal women [1]; 0.27 mg dose, Week 8) was −6.02, the “Frequency … Mean Change from Baseline” value (menopausal women [1]; 0.27 mg dose, Week 9) was −6.24 and the “Frequency … Mean Change from Baseline” value (menopausal women [1]; 0.27 mg dose, Week 10) was −6.29. For the same compound, the “Frequency … Mean Change from Baseline” value (menopausal women [1]; 0.27 mg dose, Week 11) was −6.29, the “Frequency … Mean Change from Baseline” value (menopausal women [1]; 0.27 mg dose, Week 12) was −6.19 and the “Week at which statistical significance vs placebo was achieved, frequency of moderate to severe hot flushes” value (menopausal women [1]; 0.375 mg dose) was 2 Week. The “Frequency of Moderate to Severe Hot Flushes, Mean” value (menopausal women [1]; 0.375 mg dose) was 12.50, the “Frequency … Mean Change from Baseline” value (menopausal women [1]; 0.375 mg dose, Week 1) was −1.93 and the “Frequency … Mean Change from Baseline” value (menopausal women [1]; 0.375 mg dose, Week 2) was −4.36. The “Frequency … Mean Change from Baseline” value (menopausal women [1]; 0.375 mg dose, Week 3) was −5.73, the “Frequency … Mean Change from Baseline” value (menopausal women [1]; 0.375 mg dose, Week 4) was −6.91 and the “Frequency … Mean Change from Baseline” value (menopausal women [1]; 0.375 mg dose, Week 5) was −7.56. For the same compound, the “Frequency … Mean Change from Baseline” value (menopausal women [1]; 0.375 mg dose, Week 6) was −7.83, the “Frequency … Mean Change from Baseline” value (menopausal women [1]; 0.375 mg dose, Week 7) was −8.05 and the “Frequency … Mean Change from Baseline” value (menopausal women [1]; 0.375 mg dose, Week 8) was −8.49. The “Frequency … Mean Change from Baseline” value (menopausal women [1]; 0.375 mg dose, Week 9) was −8.69, the “Frequency … Mean Change from Baseline” value (menopausal women [1]; 0.375 mg dose, Week 10) was −8.47 and the “Frequency … Mean Change from Baseline” value (menopausal women [1]; 0.375 mg dose, Week 11) was −8.81. The “Frequency … Mean Change from Baseline” value (menopausal women [1]; 0.375 mg dose, Week 12) was −8.76, the “Efficacy vs. placebo, frequency and severity of moderate to severe hot flushes” value (menopausal women [1]; 0.375 mg dose, Weeks 4 and 12, all 4 criteria) was “efficacious vs. placebo” and the “Improvement in moderate to severe symptoms of vulvar and vaginal atrophy” value (menopausal women [2]; 0.27 mg dose) was “statistically significant improvement”. For the same compound, the “Symptom of Vulvar and Vaginal Atrophy, number of subjects rated Moderate” value (from here on “Symptom … number of subjects rated Moderate”) (menopausal women [2]; [3]) was 21, the “Symptom of Vulvar and Vaginal Atrophy, number of subjects rated Severe” value (from here on “Symptom … number of subjects rated Severe”) (menopausal women [2]; [3]) was 16 and the “Symptom of Vulvar and Vaginal Atrophy, percent of subjects rated Severe” value (“Symptom … percent of subjects rated Severe” below) (menopausal women [2]; [3]) was “(13.9%)”. For the same compound, the “Symptom of Vulvar and Vaginal Atrophy, number of subjects rated Mild” value (menopausal women [2]; [4]) was 15, the “Symptom … number of subjects rated Moderate” value (menopausal women [2]; [4]) was 10 and the “Symptom of Vulvar and Vaginal Atrophy, number of subjects rated None” value (menopausal women [2]; [4]) was 6. The “Symptom … number of subjects rated Severe” value (menopausal women [2]; [4]) was 5, the “Symptom of Vulvar and Vaginal Atrophy, percent of subjects rated Mild” value (menopausal women [2]; [4]) was “(13.0%)” and the “Symptom of Vulvar and Vaginal Atrophy, percent of subjects rated Moderate” value (menopausal women [2]; [4]) was “(8.7%)”. For the same compound, the “Symptom of Vulvar and Vaginal Atrophy, percent of subjects rated None” value (menopausal women [2]; [4]) was “(5.2%)”, the “Symptom … percent of subjects rated Severe” value (menopausal women [2]; [4]) was “(4.3%)” and the “Improvement in moderate to severe symptoms of vulvar and vaginal atrophy” value (menopausal women [2]; 0.375 mg dose) was “statistically significant improvement”. The “Symptom … number of subjects rated Moderate” value (menopausal women [2]; [5]) was 26, the “Symptom … number of subjects rated Severe” value (menopausal women [2]; [5]) was 18 and the “Symptom of Vulvar and Vaginal Atrophy, percent of subjects rated Moderate” value (menopausal women [2]; [5]) was “(22.8%)”. For the same compound, the “Symptom … percent of subjects rated Severe” value (menopausal women [2]; [5]) was “(15.8%)”.
